Laboratory results published in article PMC10100900, “Virtual Screening and In Vitro Experimental Verification of LuxS Inhibitors for Escherichia coli O157:H7” (Microbiology Spectrum, 2023).
Like-named read-outs stand apart in the source and are kept apart here.

Experiments:
[1] = target: T1, LuxS of E. coli (Escherichia coli O157:H7, UniProt Q8X902); assay: AI-2 bioluminescence assay (V. harveyi BB170 reporter) of AI-2 production; format: cell-based; settings: E. coli O157:H7 cultured 16 h with inhibitor, supernatant read with V. harveyi BB170
T1 construct: endogenous in cells; host or cells: E. coli O157:H7 (ATCC 43895)
T1 sequence (Q8X902 2-171): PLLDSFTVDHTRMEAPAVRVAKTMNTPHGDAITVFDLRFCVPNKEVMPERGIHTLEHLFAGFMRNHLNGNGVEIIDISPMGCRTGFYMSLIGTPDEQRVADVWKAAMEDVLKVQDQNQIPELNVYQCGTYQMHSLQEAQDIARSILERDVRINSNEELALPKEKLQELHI

[2] = target: T2, LuxS (Escherichia coli O157:H7, UniProt Q8X902); assay: Surface plasmon resonance (BIAcore T200) binding
T2 sequence (Q8X902 2-171): T1 sequence (Q8X902 2-171)
Method: The binding affinity of the three compounds and LuxS was assessed by SPR assay using a BIAcore T200 (GE Healthcare, Pittsburgh, PA) ([64]). The LuxS protein was immobilized on a CM5 sensor chip with the final immobilization levels of 7,582.4 resonance units (RU). The running buffer used in the study was 1.0× phosphate-buffered saline containing detergent (PBS-P^+; pH 7.4) and 5% (vol/vol) dimethyl sulfoxide. For each binding cycle, the compound was injected for 120 s with a dissociation time of 180 s. A series of compound concentrations (0.94, 1.88, 3.75, 7.5, 15, and 30 μM) were injected for analysis, with furanone C30 as a positive control. Eventually, data were analyzed by Biacore evaluation software, whereas the equilibrium dissociation constant (KD = Kd/Ka) was calculated by curve fitting with a 1:1 binding model.

[3] = test system: E. coli O157:H7; assay: Growth, microbroth dilution assay (OD600); format: cell-based, Escherichia coli O157:H7; settings: 6.25 to 100 μM, 24 h, compared to the control
Method: As described for previous protocols, growth and metabolic activity were evaluated by the broth dilution method and an alamarBlue assay ([65], [66]). Briefly, 96-well plates were seeded with bacterial suspension (OD600 = 0.01) containing different concentrations of hit compounds and incubated at 37°C for 24 h. At 600 nm, the absorbance was measured using the Multiskan Go Reader (Thermo Fisher Scientific, USA).

[4] = test system: Caco-2 cells; assay: Cytotoxicity, CCK-8 assay; format: cell-based; settings: 24 h
Method: The cytotoxicity of hit compounds was assessed by a CCK-8 assay in Caco-2 cells. At 37°C, Caco-2 cells (1 × 10^5 cells/mL) were seeded in a 96-well plate for 24 h. Further, different concentrations of hit compounds were added to 96-well plates at final concentrations of 6.25, 12.5, 25, 50, and 100 μM. After incubation for 24 h, the plate was incubated at 37°C for 1 h with 10 μL of CCK-8 (MCE, China). A Multiskan Go Reader (Thermo Fisher Scientific) was used to measure the absorbance at 450 nm.

[5] = test system: E. coli O157:H7 biofilm; assay: Biofilm formation, crystal violet (CV) staining; format: cell-based, Escherichia coli O157:H7; settings: 50 μM, 24 h
Method: Based on previous studies, CV staining was used to assess biofilm formation ([67]). The overnight cultured E. coli O157:H7 was diluted to OD600 of 0.01. The diluted E. coli suspensions were mixed with different concentrations of hit compounds and incubated at 37°C for 24 h. The plate was washed three times using PBS (pH 7.2) before it was fixed with methanol for 30 min. After staining for 30 min with CV, the plates were rinsed with distilled water and dried at 55°C. Finally, the CV attached to wells was dissolved in 95% ethanol. The absorbance at 570 nm was then measured using a Multiskan Go Reader.

[6] = test system: luxS gene; format: cell-based, E. coli
[7] = test system: E. coli O157:H7; assay: Metabolic activity, alamarBlue assay; settings: 6.25 to 100 μM, 24 h, compared to the control
[8] = IC50, AI-2 bioluminescence assay

Row | SMILES | IC50 [1, 8] | other results
1 | O=C(NCc1nc2ccccc2[nH]1)c1ccccc1 [0180-0358] | 22.5 µM | –
2 | CCOc1ccc(NCC(=O)N/N=C/c2c[nH]c3ccccc23)cc1 [1761-1352] | 29.2 µM | –
3 | O=C(N/N=C/c1ccc(O)c(O)c1)c1cc(-c2ccc3ccccc3c2)n[nH]1 [3254-3286] | 7.57 µM | Kd [2]: 18.5 µM; effect on growth of E. coli [3]: no significant effect; cytotoxicity to Caco-2 cells ([4]; 6.25 to 100 μM): nontoxic; biofilm formation, increased by about [5]: ~81.12%; suppression of the expression of LuxS [6]: ~57.4%; effect on metabolic activity of E. coli [7]: no significant effect
4 | COc1ccc2[nH]c(C(=O)NC3CCC(CN4Cc5ccccc5C4=O)CC3)c(C)c2c1 (stereo not shown) [D753-0186] | 18.8 µM | –
5 | Cc1ccc2ccc3cc(C(=O)NCCN4CCN(c5cccc(Cl)c5)CC4)[nH]c3c2n1 [E941-0195] | 28.5 µM | –
6 | O=C(NCCN1CCN(c2cccc(Cl)c2)CC1)c1cc2ccc3cccnc3c2[nH]1 [E950-0195] | 32.8 µM | –
7 | O=C(NCCN1CCN(c2ccccc2F)CC1)c1cc2ccc3cccnc3c2[nH]1 [E950-0198] | 30.9 µM | –
8 | Cc1cc(CNC(=O)Nc2cccc3c2CCCC3)c(C)n1-c1ccccc1 [E983-1808] | 21.9 µM | –
9 | NC1=C(c2nc3ccccc3s2)C(=O)CN1c1cccc(C(=O)NCc2ccccc2)c1 [F187-0533] | 13.6 µM | –
10 | Cc1[nH]c(C(=O)NC2CCCCC2)c(C)c1S(=O)(=O)N1CCCCCC1 [F379-1612] | 26.1 µM | –
11 | COc1ccc(C(=O)Nc2cc(NC(=O)c3cc4ccccc4[nH]3)ccc2OC)cc1 [F603-0744] | 12.3 µM | –
12 | O=C(NCC1CCN(Cc2ccc(Cl)cc2)CC1)c1n[nH]c2c1COc1ccccc1-2 [G365-0523] | 12.2 µM | –
13 | COc1cccc(NC(=O)CSCc2cc(=O)c3ccccc3[nH]2)c1 [G751-0153] | 16.8 µM | –
14 | CCc1ccc(NC(=O)CSCc2cc(=O)c3cccc(F)c3[nH]2)cc1 [G751-5415] | 26.4 µM | –
15 | CCc1ccc(NC(=O)CSCc2cc(=O)c3cc(CC)ccc3[nH]2)cc1 [G751-5495] | 24.8 µM | –
16 | Cc1ccc(C(=O)N2CCc3cc(CNC(=O)c4ccc(C#N)cc4)ccc32)cc1 [G883-0304] | 19 µM | –

Row | SMILES | IC50 [1, 8] | other results
17 | Cc1ccc(C(=O)N2CCc3cc(CNC(=O)c4ccc(Br)cc4)ccc32)cc1 [G883-0331] | 15 µM | –
18 | Cc1ccc(C(=O)NCc2ccc3c(c2)CCN3C(=O)c2ccc(Cl)cc2)cc1 [G883-0476] | 18.6 µM | –
19 | O=C(NCc1ccc2c(c1)CCN2C(=O)c1ccccc1)c1ccc(Cl)cc1 [G883-0595] | 18.6 µM | –
20 | O=C(NCc1ccc2c(c1)CCN2C(=O)c1ccccc1)c1ccc(Br)cc1 [G883-0627] | 19.6 µM | –
21 | O=C(NCc1ccc2c(c1)CCN2C(=O)c1ccc(F)cc1)c1cc2ccccc2[nH]1 [G883-0849] | 21.8 µM | –
22 | CC(C)C(=O)N1CCc2cc(CNC(=O)c3cc4ccccc4[nH]3)ccc21 [G883-2010] | 24.9 µM | –
23 | O=C(NCc1nc(-c2ccc3c(c2)ncn3C2CCCC2)no1)c1ccccc1 [G945-0601] | 13.4 µM | –
24 | O=C(NC1CCN(Cc2ccccc2)CC1)c1ccc(-c2cc(N3CCCC3)ncn2)cc1 [L010-0050] | 20.4 µM | –
25 | CSc1ccc(CNC(=O)c2cccc(-c3cnc(N4CCCC4)nc3)c2)cc1 [L368-0079] | – | IC50 ([1]; AI-2 bioluminescence assay): 7.01 µM; biofilm formation, increased by about [5]: ~76.8%
26 | CCC(=O)N1CCc2cc(-c3ccc(C(=O)NC4CCN(Cc5ccccc5)CC4)cc3)ccc21 [L413-0101] | 13.3 µM | –
27 | CCC(=O)N1CCc2cc(-c3ccc(C(=O)NCc4ccc(N(C)C)cc4)cc3)ccc21 [L413-0180] | 4.03 µM | Kd [2]: 77.7 µM; effect on growth of E. coli [3]: no significant effect; cytotoxicity to Caco-2 cells ([4]; 100 μM): slightly cytotoxic; cytotoxicity to Caco-2 cells ([4]; 6.25 to 50 μM): nontoxic; biofilm formation, increased by about [5]: ~51.4%; suppression of the expression of LuxS [6]: ~65.1%; effect on metabolic activity of E. coli [7]: no significant effect
28 | CSc1ccc(CNC(=O)C2=Cc3cc(-c4ccccc4)ccc3OC2)cc1 [L449-1159] | – | IC50 ([1]; AI-2 bioluminescence assay): 8.64 µM; biofilm formation, increased by about [5]: about 75.4%
29 | CCCn1cnc2cc(CNC(=O)c3cc4cc(Cl)ccc4[nH]3)ccc21 [M414-3326] | – | IC50 ([1]; AI-2 bioluminescence assay): 9.62 µM; Kd ([2]; read-out: equilibrium dissociation constant (KD), LuxS immobilized on CM5 chip, PBS-P+ pH 7.4, 5% DMSO, 1:1 binding model): 1.92 µM; effect on growth of E. coli [3]: no significant effect; cytotoxicity to Caco-2 cells ([4]; 6.25 to 100 μM): nontoxic; biofilm formation, increased by about [5]: ~53.6%; suppression of the expression of LuxS [6]: about 59.9%; effect on metabolic activity of E. coli [7]: no significant effect
30 | CCCc1c(C)c2ccc(OC(=O)CNC(=O)c3ccccc3)cc2oc1=O [Y040-2389] | 12.8 µM | –
31 | O=C1C=C(Br)/C(=C/Br)O1 [furanone C30, reference compound] | – | Kd ([2]; LuxS immobilized on CM5 chip, PBS-P+ pH 7.4, 5% DMSO, 1:1 binding model, read-out: equilibrium dissociation constant (KD)): 0.345 µM
